{"source": "patent US20110293746A1", "about": "“Modulation of Gsk-3Beta and Method of Treating Proliferative Disorders” (Agency For Science, Technology and Research, priority 2004, published 2011)", "type_in_all_cases": "cell-based, Human", "key": {"[1]": {"test_system": "RKO/E6 cells", "experiment": "FACS apoptosis (sub-G1)", "conditions": "p53-inactive, with ADR", "method": "(§1) Cell culture and drug treatments: Human colon cancer cell line HCT116 and its derived isogenic p53^−/−, Puma^−/−, Bax^−/− and p53-inducible DLD cell lines were kindly provided by Dr. Bert Vogelstein (Johns Hopkins University, MD). RKO and RKO/E6 cells were from ATCC. Cells were cultured in DMEM containing 10% FBS. All culture reagents and media were from Invitrogen. 5-Fluorouracil, Adriamycin, etoposide and lithium chloride were purchased from Sigma. GSK-3β specific small molecule inhibitor LY2119301 was a gift from Eli Lilly (Indianapolis) and SB-216763, SB-415283 were obtained from BIOMOL.\n(§2) FACS analysis of DNA content and caspase-3 activity: Cells were harvested and fixed in 70% ethanol. Fixed cells were stained with propidium iodide (50 μg/ml) after treatment with RNase (100 μg/ml). The stained cells were analyzed for DNA content by fluorescence-activated cell sorting (FACS) in a FACScalibur™ (Becton Dickinson Instrument, San Jose, Calif.). Cell cycle fractions were quantified using the CellQues™ software (Becton Dickinson). To measure caspase-3 activity, cells were fixed with Cytofix/Cytoperm™ solution (BD PharMingen) as instructed, and then stained with FITC-conjugated rabbit anti-active caspase-3 monoclonal antibody (BD PharMingen). Quantification of cells positive for the caspase-3 detection was performed by flow cytometry."}, "[2]": {"test_system": "RKO cells", "experiment": "FACS apoptosis (sub-G1)", "conditions": "p53 wild-type, with ADR", "method": "as §1, §2"}, "[3]": {"test_system": "Bax", "experiment": "Bax conformational activation (IP with 6A7 antibody, Western blot) in HCT116 p53 −/− cells", "conditions": "same conditions", "method": "(§3) Western blotting, immunoprecipitation and microarray analysis: Cells were scraped, collected and lysed as described previously (Yu, Q., et al. Cancer Res, 62: 5743-5748, 2002). Briefly, cells were lysed with cell lysis buffer (0.3% NP40, 1 mM EDTA, 50 mM Tris-HCl (pH 7.4), 2 mM EGTA, 1% Triton X-100, […], 25 mM NaF, 1 mM Na3VO4, 2 mM AEBSF, 5 μg/ml aprotinin, 1 μg/ml leupeptin) for 30 minutes on ice, and the lysates were clarified by centrifugation at 12,000×g for 15 minutes at 4° C. Protein concentration was quantified (Bio-Rad, Hercules, Calif.) and protein samples (50 μg) were separated by SDS/PAGE and transferred onto Immobilon™ membranes (Millipore, Bedford, Mass.). Antibodies against the following proteins were used: p53 (DO-1), p21, PARP, GSK-α/β, α-Tubulin, and β-actin (Santa Cruz Biotechnology), Puma (Ab-1, Oncogene), Bax (Sigma), phosphor-(Ser9/21)-GSK-3α/β and Caspase-9 (Cell Signaling Technologies), phosphor-(Tyr216/279)-GSK-3α/β (Upstate Biotechnologies), cytochrome c (BD PharMingen). To detect Bax conformational change, cells were lysed in 1% Chaps buffer and the soluble fraction was immunoprecipitated with anti-Bax monoclonal antibody (6A7, BD, PharMingen), followed by immunoblotting with anti-Bax polyclonal antibody. Microarray analysis was performed as described (Kho, P. S., et al. J Biol Chem, 279: 21183-21192, 2004)."}, "[4]": {"test_system": "HCT116 Bax −/− cells", "experiment": "FACS apoptosis and immunoblot", "method": "as §1, §3, §2"}, "[5]": {"test_system": "HCT116 Puma −/− cells", "experiment": "FACS apoptosis and immunoblot", "method": "as §1, §3, §2"}, "[6]": {"test_system": "LoVo cells", "experiment": "Apoptosis upon DNA damage", "conditions": "p53 wild-type, no Bax protein; data not shown"}, "[7]": {"test_system": "p53 and p53 targets in HCT116 cells", "experiment": "Immunoblot analyses of p53 and p53 targets", "method": "as §3"}, "[8]": {"test_system": "HCT116 cells", "experiment": "Western blots of cytosolic fractions: cytochrome c release and caspase-9 processing", "conditions": "after DNA damage (ADR or etoposide) in presence of LY2119301", "method": "as §3, with “2004). […]” for “2004).”"}, "[9]": {"test_system": "HCT116 cells expressing p53 shRNA", "experiment": "FACS apoptosis in HCT116 cells expressing p53 shRNA", "conditions": "LY2119301 and ADR (1 μM) or 5-FU (100 μM), 24 h, p53 knockdown", "method": "as §2\nRNA interference: To generate knockdown vectors for p53, the following 19-nucleotide sequence was used: […] [SEQ ID NO: 1]. The oligonucleotide pair was cloned into the retroviral expression vector pSIREN-RetroQ™ (BD Bioscienses) according to the manufacturer's instructions. Briefly, 293 cells were transfected with the p53 shRNA construct for 48 h to produce viral particles. To establish p53 shRNA stable transfection clones, HCT116 cells were infected with retroviral stocks in the presence of 5 μg/ml polybrene. Infected cells were subject to puromycin selection at 2 μg/ml. […]"}, "[10]": {"test_system": "SW480", "experiment": "Apoptosis in p53 mutant colon cancer cell line", "conditions": "data not shown", "method": "as §2"}, "[11]": {"test_system": "p53-inducible DLD1 cells", "experiment": "Apoptosis and immunoblot in tetracycline-inducible p53 expressing cells", "method": "as §1, §3, §2"}, "[12]": {"conditions": "LY2119301 with ADR or etoposide"}, "[13]": {"conditions": "co-treated with LY2119301 and ADR or etoposide, 24 h"}, "[14]": {"conditions": "with ADR, etoposide or 5-FU, HCT116 (LY2119301 also RKO)"}}, "note": "“Also recorded” adds a separate entry of the source."}
{"smiles": "CN1CCN(c2ccc(NCCNc3ccc([N+](=O)[O-])c(N)n3)nc2-c2ccc(Cl)cc2Cl)C(=O)C1", "note": "[LY2119301]", "values": [{"measurement": "apoptotic effect on the p53 response", "setting": "[1]", "value": "not"}, {"measurement": "apoptotic effect on the p53 response", "setting": "[2]", "value": "observed"}, {"measurement": "Bax conformation", "setting": "[3]", "value": "no detectable change"}, {"measurement": "PARP cleavage", "setting": "[4]; [12]", "value": "not observed"}, {"measurement": "apoptosis", "setting": "[4]; [13]", "value": "completely refractory"}, {"measurement": "induction of p21 after ADR or etoposide", "setting": "[4]; immunoblot", "value": "similarly reduced"}, {"measurement": "p53 accumulation after ADR or etoposide", "setting": "[4]; immunoblot", "value": "similarly reduced"}, {"measurement": "PARP cleavage", "setting": "[5]; [12]", "value": "evident"}, {"measurement": "apoptosis", "setting": "[5]; [13]", "value": "marked apoptosis"}, {"measurement": "induction of p21 after ADR or etoposide", "setting": "[5]; immunoblot", "value": "similarly reduced"}, {"measurement": "p53 accumulation after ADR or etoposide", "setting": "[5]; immunoblot", "value": "similarly reduced"}, {"measurement": "apoptosis induced by LY2119301 upon DNA damage", "setting": "[6]", "value": "resistant"}, {"measurement": "Bax levels", "setting": "[7]; HCT116 and RKO", "value": "no effect"}, {"measurement": "cleavage of PARP", "setting": "[7]; cells treated with genotoxic agents", "value": "remarkably increased"}, {"measurement": "p53-mediated p21 induction", "setting": "[7]; [14]", "value": "prevents; also recorded: impaired"}, {"measurement": "p53 accumulation / stability in response to DNA damage", "setting": "[7]; [14]", "value": "prevents; also recorded: markedly and consistently impaired"}, {"measurement": "induction of Puma", "setting": "[7]; with chemotherapeutic agents, HCT116 and RKO", "value": "impaired"}, {"measurement": "caspase 9 processing", "setting": "[8]", "value": "evident"}, {"measurement": "cytochrome c release", "setting": "[8]", "value": "increased"}, {"measurement": "apoptosis induction by co-treatment vs control vector cells", "setting": "[9]", "value": "significantly reduced"}, {"measurement": "apoptosis induction", "setting": "[10]", "value": "not induced"}, {"measurement": "Bax activation", "setting": "[11]; IP-Western, p53 induction plus LY2119301", "value": "similarly seen"}, {"measurement": "ectopically expressed p53 protein levels", "setting": "[11]; Western blot", "value": "no effect"}, {"measurement": "p53 dependent transcription of p21", "setting": "[11]; Western blot", "value": "no effect"}, {"measurement": "apoptosis induced by enforced p53 expression", "setting": "[11]; in the presence of LY2119301", "value": "significantly increased"}]}
